Data reported in PubChem BioAssay (NCI).
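Following 48 hours of exposure in 96-well plates, responses at five concentrations were used to interpolate endpoints linearly. Definition used: TGI = concentration required for complete inhibition of growth.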

Columns and labels:
Test in all cases: growth of human tumour cells (NCI), 48 h
NCI-H226 lung = tested on: NCI-H226 lung
NCI/ADR-RES ovarian = tested on: NCI/ADR-RES ovarian
SK-MEL-2 melanoma = tested on: SK-MEL-2 melanoma
BT-549 breast = tested on: BT-549 breast
DU-145 prostate = tested on: DU-145 prostate
NCI-H460 lung = tested on: NCI-H460 lung
SN12C renal = tested on: SN12C renal
SF-295 CNS = tested on: SF-295 CNS
A498 renal = tested on: A498 renal
SF-268 CNS = tested on: SF-268 CNS
A549 NSCLC = tested on: A549 NSCLC
HCT-15 colon = tested on: HCT-15 colon
786-0 renal = tested on: 786-0 renal
KM12 colon = tested on: KM12 colon
EKVX NSCLC = tested on: EKVX NSCLC
PC-3 prostate = tested on: PC-3 prostate
SF-539 CNS = tested on: SF-539 CNS
SR leukemia = tested on: SR leukemia
MDA-MB-435 = tested on: MDA-MB-435
SNB-75 CNS = tested on: SNB-75 CNS
LOX IMVI melanoma = tested on: LOX IMVI melanoma
RPMI-8226 leukemia = tested on: RPMI-8226 leukemia
OVCAR-3 ovarian = tested on: OVCAR-3 ovarian
TK-10 renal = tested on: TK-10 renal
UACC-257 melanoma = tested on: UACC-257 melanoma
NCI-H522 lung = tested on: NCI-H522 lung
M14 melanoma = tested on: M14 melanoma
OVCAR-5 ovarian = tested on: OVCAR-5 ovarian
SNB-19 CNS = tested on: SNB-19 CNS
U251 CNS = tested on: U251 CNS
UO-31 renal = tested on: UO-31 renal
SK-OV-3 ovarian = tested on: SK-OV-3 ovarian
IGROV1 ovarian = tested on: IGROV1 ovarian
MDA-MB-231 breast = tested on: MDA-MB-231 breast
UACC-62 melanoma = tested on: UACC-62 melanoma
SW-620 colon = tested on: SW-620 colon
HT29 colon = tested on: HT29 colon
MCF7 breast = tested on: MCF7 breast
HCC-2998 colon = tested on: HCC-2998 colon
HOP-62 NSCLC = tested on: HOP-62 NSCLC
MDA-N = tested on: MDA-N
OVCAR-4 ovarian = tested on: OVCAR-4 ovarian
K-562 leukemia = tested on: K-562 leukemia
SK-MEL-28 melanoma = tested on: SK-MEL-28 melanoma
MALME-3M melanoma = tested on: MALME-3M melanoma
HOP-92 NSCLC = tested on: HOP-92 NSCLC
HCT-116 colon = tested on: HCT-116 colon
ACHN renal = tested on: ACHN renal
MOLT-4 leukemia = tested on: MOLT-4 leukemia
HL-60(TB) leukemia = tested on: HL-60(TB) leukemia
OVCAR-8 ovarian = tested on: OVCAR-8 ovarian
HS 578T breast = tested on: HS 578T breast
RXF 393 renal = tested on: RXF 393 renal
SK-MEL-5 melanoma = tested on: SK-MEL-5 melanoma
NCI-H23 lung = tested on: NCI-H23 lung
CAKI-1 renal = tested on: CAKI-1 renal
T-47D breast = tested on: T-47D breast
CCRF-CEM leukemia = tested on: CCRF-CEM leukemia
COLO 205 colon = tested on: COLO 205 colon

With `COC(=O)c1ccc(Cc2cc(Cc3ccc(C(=O)OC)cc3)cc(Cc3ccc(C(=O)OC)cc3)c2)cc1` the TGI (NCI-H226 lung) was over 25 µM, the TGI (NCI/ADR-RES ovarian) was over 25 µM and the TGI (SK-MEL-2 melanoma) was over 25 µM. For the same molecule, the TGI (BT-549 breast) was over 25 µM, the TGI (DU-145 prostate) was over 25 µM and the TGI (NCI-H460 lung) was over 25 µM. It also gave a TGI (SN12C renal) of over 25 µM, a TGI (SF-295 CNS) of over 25 µM and a TGI (A498 renal) of over 25 µM. For the same molecule, the TGI (SF-268 CNS) was over 25 µM, the TGI (A549 NSCLC) was over 25 µM and the TGI (HCT-15 colon) was over 25 µM. The TGI (786-0 renal) was over 25 µM, the TGI (KM12 colon) was over 25 µM and the TGI (EKVX NSCLC) was over 25 µM. The TGI (PC-3 prostate) was over 25 µM, the TGI (SF-539 CNS) was over 25 µM and the TGI (SR leukemia) was over 25 µM. For the same molecule, the TGI (MDA-MB-435) was over 25 µM, the TGI (SNB-75 CNS) was over 25 µM and the TGI (LOX IMVI melanoma) was over 25 µM. The TGI (RPMI-8226 leukemia) was over 25 µM, the TGI (OVCAR-3 ovarian) was over 25 µM and the TGI (TK-10 renal) was over 25 µM. The TGI (UACC-257 melanoma) was over 25 µM, the TGI (NCI-H522 lung) was over 25 µM and the TGI (M14 melanoma) was over 25 µM. It also gave a TGI (OVCAR-5 ovarian) of over 25 µM, a TGI (SNB-19 CNS) of over 25 µM and a TGI (U251 CNS) of over 25 µM. For the same molecule, the TGI (UO-31 renal) was over 25 µM, the TGI (SK-OV-3 ovarian) was over 25 µM and the TGI (IGROV1 ovarian) was over 25 µM. The TGI (MDA-MB-231 breast) was over 25 µM, the TGI (UACC-62 melanoma) was over 25 µM and the TGI (SW-620 colon) was over 25 µM. The TGI (HT29 colon) was over 25 µM, the TGI (MCF7 breast) was over 25 µM and the TGI (HCC-2998 colon) was over 25 µM. For the same molecule, the TGI (HOP-62 NSCLC) was over 25 µM, the TGI (MDA-N) was over 25 µM and the TGI (OVCAR-4 ovarian) was over 25 µM. The TGI (K-562 leukemia) was over 25 µM, the TGI (SK-MEL-28 melanoma) was over 25 µM and the TGI (MALME-3M melanoma) was over 25 µM. For the same molecule, the TGI (HOP-92 NSCLC) was over 25 µM, the TGI (HCT-116 colon) was over 25 µM and the TGI (ACHN renal) was over 25 µM. For the same molecule, the TGI (MOLT-4 leukemia) was over 25 µM, the TGI (HL-60(TB) leukemia) was over 25 µM and the TGI (OVCAR-8 ovarian) was over 25 µM. It also gave a TGI (HS 578T breast) of over 25 µM.
Work on `CCN(CC)CCCNC(=O)c1cc(-c2nccn2C)nc2ccccc12` yielded a TGI (NCI-H226 lung) of over 100 µM, a TGI (NCI/ADR-RES ovarian) of over 100 µM and a TGI (SK-MEL-2 melanoma) of over 100 µM. The TGI (BT-549 breast) was over 100 µM, the TGI (DU-145 prostate) was over 100 µM and the TGI (NCI-H460 lung) was over 100 µM. The TGI (SN12C renal) was over 100 µM, the TGI (A498 renal) was over 100 µM and the TGI (SF-268 CNS) was over 100 µM. The TGI (A549 NSCLC) was over 100 µM, the TGI (HCT-15 colon) was over 100 µM and the TGI (786-0 renal) was over 100 µM. It also gave a TGI (KM12 colon) of over 100 µM, a TGI (EKVX NSCLC) of over 100 µM and a TGI (PC-3 prostate) of over 100 µM. For the same molecule, the TGI (SF-539 CNS) was over 100 µM, the TGI (MDA-MB-435) was over 100 µM and the TGI (SNB-75 CNS) was over 100 µM. For the same molecule, the TGI (RXF 393 renal) was over 100 µM, the TGI (SK-MEL-5 melanoma) was over 100 µM and the TGI (LOX IMVI melanoma) was over 100 µM. It also gave a TGI (RPMI-8226 leukemia) of over 100 µM, a TGI (NCI-H23 lung) of over 100 µM and a TGI (TK-10 renal) of over 100 µM. For the same molecule, the TGI (UACC-257 melanoma) was over 100 µM, the TGI (NCI-H522 lung) was over 100 µM and the TGI (M14 melanoma) was over 100 µM. It also gave a TGI (OVCAR-5 ovarian) of over 100 µM, a TGI (CAKI-1 renal) of over 100 µM and a TGI (SNB-19 CNS) of over 100 µM. It also gave a TGI (U251 CNS) of over 100 µM, a TGI (UO-31 renal) of over 100 µM and a TGI (IGROV1 ovarian) of over 100 µM. It also gave a TGI (MDA-MB-231 breast) of over 100 µM, a TGI (T-47D breast) of over 100 µM and a TGI (UACC-62 melanoma) of over 100 µM. It also gave a TGI (SW-620 colon) of over 100 µM, a TGI (HT29 colon) of over 100 µM and a TGI (MCF7 breast) of over 100 µM. It also gave a TGI (HCC-2998 colon) of over 100 µM, a TGI (HOP-62 NSCLC) of over 100 µM and a TGI (MDA-N) of over 100 µM. For the same molecule, the TGI (OVCAR-4 ovarian) was over 100 µM, the TGI (CCRF-CEM leukemia) was over 100 µM and the TGI (K-562 leukemia) was over 100 µM. It also gave a TGI (COLO 205 colon) of over 100 µM, a TGI (MALME-3M melanoma) of over 100 µM and a TGI (HOP-92 NSCLC) of over 100 µM. It also gave a TGI (HCT-116 colon) of over 100 µM, a TGI (ACHN renal) of over 100 µM and a TGI (MOLT-4 leukemia) of over 100 µM. For the same molecule, the TGI (HL-60(TB) leukemia) was over 100 µM and the TGI (OVCAR-8 ovarian) was over 100 µM.
